According to BigSolDB 2.1:

O=P(O)(O)c1ccccc1-c1ccccc1O
Details	solubility (mole fraction)
in chlorobenzene, 300.97 K	0.013
in chlorobenzene, 304.47 K	0.0149
in chlorobenzene, 308.86 K	0.0156
in chlorobenzene, 313.71 K	0.0195
in chlorobenzene, 319.15 K	0.0274
in chlorobenzene, 325.56 K	0.036
in chlorobenzene, 332.4 K	0.047
in chlorobenzene, 338.93 K	0.0597
in chlorobenzene, 342.74 K	0.07
in chlorobenzene, 346.96 K	0.0853
in chlorobenzene, 349.4 K	0.0974
in chlorobenzene, 352.87 K	0.116
in chlorobenzene, 355.3 K	0.131
in water, 308.6 K	0.000258
in water, 314.7 K	0.000336
in water, 320.97 K	0.000396
in water, 332.2 K	0.000496
in water, 337.7 K	0.000579
in water, 342.4 K	0.000688
in water, 347.77 K	0.000763
in water, 352.6 K	0.000859
in water, 358.3 K	0.000984
in water, 362.37 K	0.00115
